Tested on: PC12 cells
Test: Microchip amperometric detection of electrically evoked exocytotic catecholamine release
Type: cell-based, rat
Method: Cells were cultured in suspension in 75 mm^2 tissue culture flasks with RPMI 1640 (Invitrogen, Carlsbad, Calif.) cell culture media supplemented with 15% horse serum (Invitrogen), 2.5% fetal bovine serum (Invitrogen) and 0.02 mg/ml gentamicin (Invitrogen). Flasks were kept in an incubator at 37° C. with 5% CO2. Media was refreshed every 3-4 days, retaining 10% of the existing media each time. Cells were mechanically agitated to break up cell clusters through repeated washing through a pipettor tip. Additional separation was achieved through weekly, overnight treatment of the cells in 1 mM ethylene glycol tetraacetic acid (EGTA, Sigma-Aldrich, St. Louis, Mo.) with subsequent washing and trituration.
Prior to use, cells were transferred to Locke's buffer consisting of 154 mM NaCl, 5.6 mM KCl, 3.6 mM NaHCO3, 2.3 mM CaCl2, 5.6 mM glucose, and 5 mM Hepes (pH 7.4). An aliquot of the solution was immediately transferred to the MEMS device via manual pipette aspiration. […]
Neurotransmitter release from the PC12 cells was measured using a three electrode arrangement with a Au WE (FIGS. 3A and 3B, WE), a Au counter electrode (FIGS. 3A and 3B, CE) and silver/silver chloride (Ag/AgCl) reference electrode (RE) with all controlled by a NPI VA-10 potentiostat (National Precision Instruments (NPI), Tamm, Germany). […]

| SMILES | exocytosis activity after exposure to the actin-disrupting agent (population of PC12 cells exposed to cytochalasin-D, data not shown) | cube root of quantal yield (PC12 cells differentiated with 5 μM dexamethasone, n=209 cells, k=25,463 spikes, WE +700 mV vs Ag/AgCl) |
| --- | --- | --- |
| C=C1[C@@H](C)[C@H]2[C@H](Cc3ccccc3)NC(=O)[C@]23[C@H](OC(C)=O)/C=C/[C@@](C)(O)C(=O)[C@@H](C)C/C=C/[C@H]3[C@@H]1O [cytochalasin-D] | did not block | – |
| C[C@@H]1C[C@H]2[C@@H]3CCC4=CC(=O)C=C[C@]4(C)[C@@]3(F)[C@@H](O)C[C@]2(C)[C@@]1(O)C(=O)CO [dexamethasone] | – | 6.6±0.08 zmol^1/3 |

From patent US20130130299A1, “ELECT[…] CYTOMETRY” (University of Utah Research Foundation, priority 2009, published 2013)
